In US11406625B2, “Method of treating amyotrophic lateral sclerosis with pridopidine” (PRILENIA NEUROTHERAPEUTICS LTD., priority 2017, dated 2022):
Where two headings read alike, the source gives them in different places.

Key:
[1] = test system: motor neurons (MNs) from spinal cord explants; experiment: Axonal transport assay of Qdot-BDNF in microfluidic chamber; assay type: cell-based, mice; conditions: for velocity of BDNF axonal transport: S1R−/− (S1R KO) MNs
Source text: Healthy motor neurons (MN) extend axons over long distances and through varying extracellular microenvironments to form synapses with muscles. The ability of the neuron to maintain this specialized morphology depends on cytoskeletal elements and continuous transport of proteins and organelles to and from the cell body. Cytoskeletal alterations are a major pathway implicated in the pathogenesis of ALS affecting axonal transport, growth and neuromuscular junction (NMJ) function (Eykens and Robberecht, 2015). Alterations in axonal transport are one of the first cellular processes that occur in neurodegenerative disease, including ALS. Axonal transport was evaluated using an in vitro compartmentalized system of microfluidic chambers (MFC) that separates neuronal cell bodies from their axons and synapses, enabling the study of retrograde/anterograde transport by specific monitoring and manipulation of cellular microenvironments (FIG. 1b: Zahavi 2015; Ionescu 2016).
Quantum-Dot labeled BDNF (Qdot BDNF) is retrogradely transported in axons of motor neurons grown from spinal cord explants in a microfluidic chamber (MFC). A MFC was used to analyze Qdot BDNF axonal transport. Axonal transport of BDNF in the SOD1 model (SOD1G93A) for ALS has been studied (Bilsland 2010; Perlson 2009; De Vos 2007). The effect of pridopidine on transport of Qdot BDNF along the axons of motor neurons was assessed in spinal cord explants from E12.5 SOD1 G93A and WT littermate mice (LM). Experimental workflow for the axonal transport assay (from left to right, FIG. 1a): SOD1G93A or wild Type (LM) spinal cord explants were plated in the MFC. At about 5 days post plating, axons began to cross over into the distal compartment. On day 6 post plating, an amount of pridopidine was added to both compartments. On day 7, Qdot-BDNF was added to the distal compartment and axonal transport was imaged using a high-resolution spinning-disk confocal microscope. Schematic illustration of microfluidic chamber system (FIG. 1b): Explants planted in the proximal compartment extend axons to the distal compartment, where Qdot-BDNF is applied exclusively prior to visualization.
Spinning disk confocal microscopy was used to track Qdot BDNF along the axons of motor neuron explant cultures. Time lapse images of Qdot-BDNF axonal transport as acquired at 60× magnification (FIG. 1c). Arrowheads point to a single Qdot-BDNF particle that is retrogradely transported (left) towards the cell body. Scale bar: 10 μm. […] Scale bars: horizontal 10 μm: vertical 100 seconds (FIG. 1c).
. Six independent biological repeats, from 6 different cultures were tested so that from each culture and explant with neurons/glia ˜250 BDNF particles were followed along the axons in the grooves. Velocity refers to the movement of a single BDNF particle. The experiment was repeated with MNs from mice in which sigma 1 receptor was genetically deleted (S1R KO or S1R−/−) (Langa, 2003). Ventral spinal cord sections from S1R−/− mice embryos were cultured and plated in the MFC as described above, and the axonal transport of Qdot-BDNF was analyzed.
SOD1G93 and S1R−/− explants with or without pridopidine were compared to littermate controls (LM).
Qdot-BDNF particle tracking was performed on Bitplane Imaris, using the semi-automated spot tracking function. […]; stop duration: speed<0.1 μm/sec for 3 frames. Data were then exported to MATLAB for further analysis of particle transport including Instantaneous Velocities (FIG. 2a) from 6 independent cultures, and Stop count (FIG. 2b).

MN-myocyte co-culture = test system: MN-myocyte co-culture
Experimental: Synapse disruption is the earliest cellular compartment disrupted in ALS. To test the ability of pridopidine to affect synapse function in an ALS model, cultures from Experiment 2 were grown for approximately four additional days (day 18), when axons extend into the distal compartment and generate NMJs.
Scale bar: 201 μm. […] To evaluate NMJ function, movies of muscle contraction were acquired at a frame rate of 30 frames per second for 1000 frames (FIG. 5b).
Briefly, contractile activity of muscles in the distal compartment of the MFC, which were overlapped by at least one axon was examined. Muscles were categorized into two groups: ‘Contracting’ or ‘Non-contracting’, depending on their motile activity during the movie. The motility of muscles was validated by generating intensity-over-time plots for each muscle (FIG. 5b). The number of contracting muscle fibers per chamber was divided by the total number of muscle fibers analyzed in the same chamber, yielding the percentage of contracting myotubes as an output for NMJ activity.

ERK = conditions: 30 minutes
Experimental: The ERK pathway promotes numerous cellular functions including proliferation and differentiation. […] Primary MN cultures at 2 DIV were starved overnight in neurotrophin- and serum-free medium (PNB). The following day, cultures were treated for 30 minutes with pridopidine or with BDNF as a positive control.

SOD1G93A mice = conditions: 30 mg/kg daily s.c. for 11 weeks
Experimental: Presymptomatic SOD1G93A mice (5 weeks of age) and WT controls were treated with either saline, 3 or 30 mg/kg pridopidine, by daily s.c. (subcutaneous) administration for 11 weeks (until 16 weeks of age). At the end of the experiment, lumbar spinal cords (L1-L6) were extracted, fixed, and embedded for cryosectioning.

[2] = test system: SOD1G93A mice and WT controls; conditions: for increase in the muscle fiber diameter: Gastrocnemius, 30 mg/kg s.c. daily
Experimental: NMJ disruption and the subsequent skeletal muscle wasting are two main pathologies of ALS. Effect of pridopidine on muscle fiber atrophy and preservation of NMJs was evaluated in-vivo. Presymptomatic SOD1G93A mice and WT controls (5 weeks old) were treated with either saline, or pridopidine 3 or 30 mg/kg, by daily s.c. administration for 11 weeks. The Gastrocnemius muscles from vehicle or pridopidine-treated (30 mg/kg s.c.) mice were extracted from the SOD1G93A and WT mice at age 16 weeks. Muscle cross-sections were stained with Hematoxylin & Eosin (H& E), and the mean muscle fiber diameter was quantified for each group (FIG. 10a). NMJ preservation was evaluated by confocal imaging of co-localizing pre (NFH+Synapsin-I (green)- and post-synaptic (AchR (BTX; red) markers and counting the number of fully innervated NMJs in gastrocnemius muscles (FIG. 11a).

[3] = test system: motor neuron axons co-cultured with primary myocytes; conditions: myocytes carrying SOD1G93A mutation, 1 μM
Experimental: Primary muscle cells from presymptomatic (P60) WT or SOD1G93A mice were cultured. On day 6 primary skeletal myoblasts were cultured in the distal compartment of a MFC. About six days later (day 12), ventral spinal cord explants from WT or SOD1G93A E12.5 mouse embryos that express HB9-GFP (a specific motor neuron marker) were plated in the proximal compartment, followed by application of pridopidine or vehicle to both compartments. Pridopidine was refreshed every other day. Two days post explant plating (day 14), motor axon growth and degeneration were evaluated using live imaging on a spinning disc confocal system. Axonal growth was tracked by imaging every 10 min for 8 hrs. Experiments were repeated three times.

[4] = test system: human subjects afflicted with ALS; conditions: periodic oral administration
neuroblastoma cell line = conditions: S1R-dependent (Geva 2016); cited from earlier work
rat striatum = conditions: transcriptomic analysis; cited from earlier work
S1R = conditions: by activation of the S1R (Ryskamp 2017); cited from earlier work
ALS patients = conditions: cited from earlier work

## CCCN1CCC(c2cccc(S(C)(=O)=O)c2)CC1 [pridopidine, 4-(3-(Methylsulfonyl)phenyl)-1-propylpiperidine]
[1]; 0.1 μM
  velocity of BDNF axonal transport: not able to recover these defects
[1]; 1 μM
  velocity of BDNF axonal transport: not able to recover these defects
[1]; S1R−/− MNs, any of the concentrations tested
  axonal transport parameters of Qdot-BDNF: not responsive to pridopidine
[1]; SOD1G93A MNs, 0.1 μM
  instantaneous velocity of Qdot-BDNF particles: accelerated the instantaneous velocities
  particle stop count (number of counted stops of Qdot-BDNF per second): reduced the number of pauses during axonal transport
[1]; SOD1G93A MNs, 1 μM
  instantaneous velocity of Qdot-BDNF particles: accelerated the instantaneous velocities
  particle stop count (number of counted stops of Qdot-BDNF per second): reduced the number of pauses during axonal transport
[1]; WT MNs, 0.1 μM
  particle stop count (number of counted stops of Qdot-BDNF per second): reduced the number of pauses during axonal transport
[1]; WT MNs, 0.1 μM, overnight incubation
  instantaneous velocity of Qdot-BDNF particles: accelerated the instantaneous velocities
MN-myocyte co-culture; S1R−/− MNs co-cultures, 0.1μM
  percentage of contracting myocytes (neuromuscular activity): did not restore the neuromuscular activity
MN-myocyte co-culture; S1R−/− MNs co-cultures, 1 μM
  percentage of contracting myocytes: significantly lower than the percentage of contracting myocytes in untreated and treated WT cultures
MN-myocyte co-culture; SOD1G93A myocytes co-culture, 0.1μM
  percentage of contracting myocytes: increases the percentage of contracting myocytes and restores neuromuscular activity to WT levels
MN-myocyte co-culture; SOD1G93A myocytes co-culture, 1μM
  percentage of contracting myocytes: increases the percentage of contracting myocytes and restores neuromuscular activity to WT levels
MN-myocyte co-culture; muscles carrying SOD1 mutation, 1 μM
  innervation rate of muscles: increases innervation rate of muscles carrying SOD1 mutation to near WT levels
ERK; S1R−/− MN cultures, 0.1 μM and 1 μM
  activation of ERK (pERK): but not in S1R−/− MN cultures
ERK; SOD1G93A MNs, 0.1 μM
  increase in pERK (pERK/ERK ratio): ~2.9 fold
ERK; SOD1G93A MNs, 1 μM
  increase in pERK (pERK/ERK ratio): ~8.5 fold
ERK; WT MNs, 0.1 μM
  increase in pERK (pERK/ERK ratio): ~3.5 fold
ERK; WT MNs, 1 μM
  increase in pERK (pERK/ERK ratio): ~4 fold
SOD1G93A mice; spinal cord gray matter
  reduction of number of mutant SOD1 aggregates, gray matter: ~50%
SOD1G93A mice; spinal cord white matter
  reduction of number of mutant SOD1 aggregates, white matter: ~50%
[2]; SOD1G93A mice compared to WT, gastrocnemius, pridopidine treated
  loss of NMJs: ~20%
[2]; SOD1G93A mice
  increase in the muscle fiber diameter: ~4 μm
[2]; WT mice
  increase in the muscle fiber diameter: ~5 μm
[3]
  axonal growth: number of grooves with axons crossing into muscle compartment: increased number of axons crossing into the distal compartment
[4]
  symptoms of ALS in human subjects: provides a clinically meaningful advantage in reducing the symptoms of ALS
Neuroblastoma cell line
  secretion of BDNF: enhance secretion of the neuroprotective brain-derived neurotrophic factor (BDNF)
Rat striatum
  expression of BDNF, D1R, GR and Akt/PI3K pathways: activates expression
S1R
  spine impairment and aberrant calcium signaling: rescue spine impairment and aberrant calcium signaling

## CC1=NN(c2ccccc2)C(=O)C1 [edaravone]
ALS patients
  physical decline: slows physical decline

## Nc1nc2ccc(OC(F)(F)F)cc2s1 [riluzole, reference compound]
[1]; SOD1G93A MNs, 100l M (printed)
  instantaneous velocity of Qdot-BDNF particles: did not affect the instantaneous velocities
[1]; SOD1G93A MNs, 251M (printed)
  instantaneous velocity of Qdot-BDNF particles: did not affect the instantaneous velocities
ALS patients
  rate of progression of the disease: slows the rate of progression of the disease
